Laboratory results as given in article PMC3904085 (Frontiers in Neuroscience, 2014).
Entries after “also recorded” stand apart in the source; their conditions may differ.

Experiments:
[1] = test system: mice lacking OX2 receptors; test: DRL 36-s schedule of reinforcement in OX2 KO mice; assay type: in vivo, mouse; conditions: for Lever Presses Mean / Reinforcers Mean: OX2 KO mice DRL-36-s, raw data; for Lever presses emitted / Reinforcers received: mice lacking OX2 receptors, DRL-36-s
Excerpt: (§1) Rats were acclimated to housing conditions for 4 days, followed by sham dosing once daily for 3 days, prior to the experiment. For DRL experiments, male Sprague–Dawley rats weighing between 300 and 350 g at the beginning of the behavioral experiments (Holtzman, Madison, WI) were housed in pairs. For mouse DRL studies, male C57Bl/6 mice (Taconic Farms, Hudson, NY) or mice lacking either OX1 or OX2 receptors, around 8 weeks of age, were obtained from private breeding colonies at Taconic Farms (Hudson, NY). OX1 and OX2 receptor knockout mice were generated using in vitro fertilization of embryos in C57Bl/6 female mice with sperm harvested from male mice obtained from the University of Texas Southwestern Medical Center (Dallas, TX), and backcrossed for at least 10 generations. Mice and rats were housed in separate colony rooms, which were maintained at 22°C and 60% relative humidity. For rat DRL experiments, water was available for a 20-min period following the daily behavioral session. Based on recommendations from the animal care and use committee, the mouse DRL assay was developed using food deprivation rather than water deprivation. […] All experiments were conducted during the light cycle and in compliance with the Guide for the Care and Use of Laboratory Animals under protocols approved by a local animal care and use committee.
(§2) The levers in these chambers were mounted on one wall with an adjacent food magazine next to the lever in the middle of the wall. A reinforced response caused a clicker apparatus to activate and the pellet feeder to deposit one 45-mg sucrose pellet (BioServ, Frenchtown, NJ) into the food magazine. The house light, which was mounted on the ceiling, was turned on when the session began, remained on throughout the entire session, and was turned off at the end of the session. Each experimental chamber was enclosed in a melamine sound-attenuating cubicle and equipped with a white noise generator to provide masking noise.
(§3) Each mouse was initially trained under a variable time 60-s operant schedule for 5 days, followed by fixed ratio-1 ratio schedule for 5 days. After the mice had acquired lever-pressing behavior, they were trained during daily DRL 6-s sessions for ~1 week, then mice progressed through weekly ascending DRL requirements (12, 18, 24, 30 s) before moving to DRL 36-s sessions. […] Experimental sessions lasted for 45 min and were conducted 5 days/week during light hours.
(§4) Drugs were administered to the animals once or twice weekly with at least 1 week between subsequent drugs to minimize possible carryover effects. Drug treatments were administered on Tuesdays and Fridays. No treatments were administered on other test days. Wednesdays were control days. “Control” behavior was calculated as the pooled mean lever presses or reinforcers received during Wednesday sessions across all Wednesdays for the duration of each study. Performance was normalized to percent of control by dividing total responses (or reinforcers) for each drug or vehicle treatment by the mean number of responses (reinforcers) in the respective pooled control condition, multiplied by 100.
(§5) The data analyses were conducted on the raw response and reinforcement data. All behavioral data are expressed as the mean ± s.e.m. normalized to the control condition.

[2] = test system: mice lacking OX1 receptors; test: DRL 36-s schedule of reinforcement in OX1 KO mice; assay type: in vivo, mouse; conditions: for Lever Presses Mean / Reinforcers Mean: OX1 KO mice DRL-36-s, raw data; for Lever presses emitted / Reinforcers received: DRL-36-s
Excerpt: as §1, §2, §3, §4, §5

Sprague–Dawley rats = test: DRL 72-s schedule of reinforcement in rats; assay type: in vivo, rat; conditions: for Lever Presses Mean / Reinforcers Mean: HSD rats DRL-72-s, raw data
Excerpt: Each chamber was enclosed in a melamine sound-attenuating cubicle. A white noise generator provided masking noise. The interior of each chamber consisted of three levers mounted on one wall with a house light mounted on the opposite wall. The house light was turned on at initiation of each test session and was turned off at the termination of each session. A water access port was situated next to the lever in the middle of the wall, wherein a reinforced response caused a clicker apparatus to sound paired with a dipper (0.02-ml cup) to be lifted from a water trough to an opening in the floor of the access port for 4 s.
Rats were initially trained under an alternative fixed ratio 1 water reinforcement schedule with a fixed 1-min time schedule for automatic reinforcement. Thus, each response was reinforced, with water also provided every minute in the absence of a response. […] Following acquisition of lever-pressing behavior, rats were trained daily on DRL 18-s sessions for ~2 weeks, following which they were advanced to DRL 72-s sessions. Responding on these sessions became stable after ~8 weeks. Experimental test sessions lasted for 1 h and were conducted 5 days/week during light hours.
as §4, §5

C57Bl/6 mice = test: DRL 36-s schedule of reinforcement in wild-type mice; assay type: in vivo, mouse; conditions: for Lever Presses Mean / Reinforcers Mean: WT mice DRL-36-s, raw data
Excerpt: as §2, §3, §4, §5

[3] = test system: c-Fos protein in rat medial prefrontal cortex; test: Restraint-stress-induced c-Fos activation (ELISA); conditions: 3 mg/kg IP 30 min before 20 min restraint, 3 mg/kg
Protocol: Thirty min later, rats were restrained in a rigid plastic flat-bottom restraint tube (Braintree Scientific, Inc.; Braintree, MA, USA) for 20 min. After the 20 min stress period, rats were moved to a new cage and housed individually. Rats were sacrificed 2 h after stress onset. […] Immediately after sacrifice, brains were removed, the medial prefrontal cortex (mPFC), a brain area implicated in the pathophysiology of depression, was dissected from both hemispheres and frozen in 1.5 ml centrifuge tubes in dry ice, and stored at −80°C for later analysis.
Frozen mPFC tissues were removed from the −80°C freezer and placed on ice. Tissue was homogenized with a dounce homogenizer. The nuclear extract was prepared from the homogenized samples as per manufacturer's instructions using a CHEMICON ®Nuclear Extraction Kit (Millipore; Billerica, MA, USA). Protein concentrations were determined in the nuclear extracts using the Pierce BCA Protein Assay kit (Pierce Biotechnology, Inc., Rockford, IL, USA). Nuclear fractions were then assayed for Fos protein levels using the Pierce c-Fos Transcription Factor Kit (Pierce Biotechnology, Inc., Rockford, IL, USA), according to the manufacturer's instructions. […] Data were analyzed and plotted using GraphPad Prism (GraphPad Software, Inc.; La Jolla, CA, USA).

[4] = mice lacking OX1 receptors, 15 mg/kg
[5] = 10 mg/kg, positive control in the SB334867 experiment
[6] = rats DRL-72-s, 10 mg/kg, normalized to control days
[7] = rats DRL-72-s, 10 mg/kg, positive control in the SB334867 experiment
[8] = mice lacking OX1 receptors, 20 mg/kg

`CN(C)CCCN1c2ccccc2CCc2ccccc21` [imipramine] was tested, and the “Lever Presses Mean” value ([1]; dose 10 mg/kg) was 165.25, the “Reinforcers Mean” value ([1]; dose 10 mg/kg) was 27.88 and the “Lever Presses Mean” value ([1]; dose 15 mg/kg) was 116.88. For the same compound, the “Reinforcers Mean” value ([1]; dose 15 mg/kg) was 33.00, the Lever presses emitted ([1]; 15 mg/kg) was 70 % of control and the Reinforcers received ([1]; 15 mg/kg) was 140 % of control. For the same compound, the “Lever Presses Mean” value ([2]; dose 3 mg/kg) was 177.63, the “Lever Presses Mean” value ([2]; dose 10 mg/kg) was 174.13 and the “Reinforcers Mean” value ([2]; dose 10 mg/kg) was 24.25. The “Lever Presses Mean” value ([2]; dose 15 mg/kg) was 128.50, the “Reinforcers Mean” value ([2]; dose 15 mg/kg) was 31.13 and the Lever presses emitted [2, 4] was 63 % of control. For the same compound, the Reinforcers received [2, 4] was 206 % of control, the “Effect on lever pressing, in words” value ([2]; mice lacking OX1 receptors, doses lower than 15 mg/kg) was “did not affect lever pressing” and the “Lever Presses Mean” value (Sprague–Dawley rats; 10 mg/kg, positive control in the LSN2424100 experiment) was 55.71. The “Lever Presses Mean” value (Sprague–Dawley rats; [5]) was 49.00, the “Reinforcers Mean” value (Sprague–Dawley rats; [5]) was 18.57 and the “Lever Presses Mean” value (Sprague–Dawley rats; dose 1 mg/kg) was 77.50. For the same compound, the “Reinforcers Mean” value (Sprague–Dawley rats; dose 1 mg/kg) was 9.92, the “Lever Presses Mean” value (Sprague–Dawley rats; dose 3 mg/kg) was 68.42 and the “Reinforcers Mean” value (Sprague–Dawley rats; dose 3 mg/kg) was 15.17. For the same compound, the “Lever Presses Mean” value (Sprague–Dawley rats; dose 10 mg/kg) was 46.17, the “Reinforcers Mean” value (Sprague–Dawley rats; dose 10 mg/kg) was 20.33 and the Reinforcers received (Sprague–Dawley rats; [6]) was 210 % of control. For the same compound, the “Total lever presses emitted” value (Sprague–Dawley rats; [6]) was 51 % of control, the Lever presses (Sprague–Dawley rats; [7]) was 64 % of control and the Reinforcers received (Sprague–Dawley rats; [7]) was 160 % of control. The “Effect on DRL behavior (lever presses, reinforcers), in words” value (Sprague–Dawley rats; rats DRL-72-s, doses of 1 and 3 mg/kg) was “no significant effect on behavior”.

`Cc1nc2ccc(NC(=O)Nc3ccnc4cccnc34)cc2o1` [SB334867] was tested, and the “Lever Presses Mean” value ([1]; dose 1 mg/kg) was 175.50, the “Reinforcers Mean” value ([1]; dose 1 mg/kg) was 19.50 and the “Lever Presses Mean” value ([1]; dose 3 mg/kg) was 155.75. For the same compound, the “Reinforcers Mean” value ([1]; dose 3 mg/kg) was 21.50, the “Lever Presses Mean” value ([1]; dose 10 mg/kg) was 167.75 and the “Reinforcers Mean” value ([1]; dose 10 mg/kg) was 22.75. The “Lever Presses Mean” value ([1]; dose 20 mg/kg) was 149.50, the “Reinforcers Mean” value ([1]; dose 20 mg/kg) was 26.25 and the “Lever Presses Mean” value ([1]; dose 40 mg/kg) was 27.38. The “Reinforcers Mean” value ([1]; dose 40 mg/kg) was 17.50, the Lever presses emitted ([1]; 40 mg/kg) was “less than 20 % of control” and the Reinforcers received ([1]; 40 mg/kg) was 75 % of control. The “Lever Presses Mean” value ([2]; dose 1 mg/kg) was 209.75, the “Reinforcers Mean” value ([2]; dose 1 mg/kg) was 15.00 and the “Lever Presses Mean” value ([2]; dose 3 mg/kg) was 169.00. The “Reinforcers Mean” value ([2]; dose 3 mg/kg) was 23.88, the “Lever Presses Mean” value ([2]; dose 10 mg/kg) was 163.63 and the “Reinforcers Mean” value ([2]; dose 10 mg/kg) was 22.88. The “Lever Presses Mean” value ([2]; dose 20 mg/kg) was 141.88, the “Reinforcers Mean” value ([2]; dose 20 mg/kg) was 28.75 and the “Lever Presses Mean” value ([2]; dose 40 mg/kg) was 68.13. For the same compound, the “Reinforcers Mean” value ([2]; dose 40 mg/kg) was 21.38, the Lever presses emitted [2, 8] was 75 % of control and the Reinforcers received [2, 8] was 166 % of control. The Lever presses emitted ([2]; mice lacking OX1 receptors, 40 mg/kg) was 35 % of control, the Reinforcers received ([2]; mice lacking OX1 receptors, 40 mg/kg, not significant) was 123% and the “Effect on lever presses emitted or reinforcers received, in words” value (C57Bl/6 mice; C57Bl/6 mice DRL-36-s, up to 40 mg/kg) was “did not significantly affect”. The “Lever Presses Mean” value (C57Bl/6 mice; dose 3 mg/kg) was 162.86, the “Reinforcers Mean” value (C57Bl/6 mice; dose 3 mg/kg) was 17.14 and the “Lever Presses Mean” value (C57Bl/6 mice; dose 10 mg/kg) was 157.57. For the same compound, the “Reinforcers Mean” value (C57Bl/6 mice; dose 10 mg/kg) was 16.14, the “Lever Presses Mean” value (C57Bl/6 mice; dose 20 mg/kg) was 148.57 and the “Reinforcers Mean” value (C57Bl/6 mice; dose 20 mg/kg) was 18.43. For the same compound, the “Lever Presses Mean” value (C57Bl/6 mice; dose 40 mg/kg) was 87.67, the “Reinforcers Mean” value (C57Bl/6 mice; dose 40 mg/kg) was 22.33 and the “Lever Presses Mean” value (Sprague–Dawley rats; dose 3 mg/kg) was 76.57. For the same compound, the “Reinforcers Mean” value (Sprague–Dawley rats; dose 3 mg/kg) was 11.00, the “Lever Presses Mean” value (Sprague–Dawley rats; dose 10 mg/kg) was 70.71 and the “Reinforcers Mean” value (Sprague–Dawley rats; dose 10 mg/kg) was 12.43. For the same compound, the “Lever Presses Mean” value (Sprague–Dawley rats; dose 30 mg/kg IP) was 71.86, the “Reinforcers Mean” value (Sprague–Dawley rats; dose 30 mg/kg IP) was 11.00 and the “Change in reinforcers received or total lever presses made, in words” value (Sprague–Dawley rats; rats DRL-72-s, doses up to 30 mg/kg) was “did not produce a significant change”.

For `Cc1nnc2n1-c1ccc(Cl)cc1C(c1ccccc1)=NC2` [alprazolam], the “Effect on restraint stress-induced increase in c-fos expression in prefrontal cortex” value [3] was “attenuated; also recorded: blocked”.
